The source of these data is patent US20240361338A1, “DIAGNOSIS AND TREATMENT OF ECTOPIC ENDOMETRIOSIS” (FERRING B.V., priority 2021, published 2024).

For series [1] the following is noted: long-term prolactinoma treatment (Schultz et al., 2000; Barlier et al., 2006); cited from earlier work.
The test system of a further series is VEGF. As to the kind of experiment: VEGF levels in the E-MSC-HUVEC coculture model. To be noted: quinagolide treated coculture. The format is cell-based, human. As to the method:
An indirect co-culture assembly was obtained plaiting HUVECs and E-MSCs at a ratio of 1:1 (1.5×10^4/cell line) in E-MSC medium in T25 and maintaining the co-culture for 48 h in 37° C. and 5% CO2 atmosphere incubator. HUVECs and E-MSCs cultured alone were used as control for each experiment.

The subject of series [2] is ectopic EMSCs. The series can be described thus: Annexin V apoptosis assay on E-MSCs. Format: cell-based, human. To be noted: different concentrations, after 24, 48 and 72 hours. As to the method:
(§1) FIG. 3: Quinagolide effect on EMSCs apoptosis and proliferation. A: Quinagolide concentration-response curve on ectopic EMSCs in both apoptosis (N=1) and proliferation (N=2) assays. B: Effect of two selected quinagolide doses (10^−5 and 10^−7M) on HUVECs (N=1) and ectopic E-MSCs (N=3) apoptosis and proliferation assays (N=2). Data are represented as mean±SD of the indicated number of experiments and normalized to untreated cells (Control). Annexin V assays were performed using the Muse™ Annexin V & Dead Cell Kit (Millipore), according to the manufacturer's recommendations. Briefly, 20×10^3 cells were plated and after 24 h treated with different concentrations of quinagolide. After 24, 48 and 72 hours, cells were detached and resuspended in Muse™ Annexin V & Dead Cell Kit and the percentage of apoptotic cells (Annexin V+) was measured. Data are expressed as the mean±standard deviation (SD) of the media of absorbance of at least three different experiments and normalized to control.

Another series deals with AKT. As to the kind of experiment: Western blot of AKT and P-AKT in ectopic EMSCs. Format: cell-based, human. Conditions: 100 nM quinagolide. As to the method:
FIG. 6: Quinagolide effect on AKT activation. A: Representative western blot analysis and quantification of AKT levels in eutopic and ectopic EMSCs treated for 48 h with 100 nM quinagolide (Q), compared to untreated cells (CTL). B: Representative western blot analysis and quantification of P-AKT levels, normalized to AKT expression, in eutopic and ectopic EMSCs treated for 48 h with 100 nM quinagolide (Q), respect to untreated cells (CTL). C: Representative western blot analysis and quantification of P-AKT levels in HUVECs, ectopic […] basal), and in […] co-culture with HUVECs, treated or not for 24 h with 100 nM quinagolide (Q100 nM). Data are represented as mean±SD of at least two independent experiments, performed on different EMSC lines, and normalized to Vinculin and to untreated cells (CTL). One-way ANOVA was performed: *=p<0.05 and **=p<0.001 vs CTL. Cell pellets were lysed at 4° C. for 15 minutes in RIPA buffer supplemented with protease and phosphatase inhibitors cocktail and PMSF (Sigma-Aldrich). Proteins were quantified using Bradford solution following the manufacturer procedures (Bio-Rad Inc., Berkely, CA, USA) and aliquots of cell lysates containing 50 μg of proteins were run on 4-12% Mini-Protean TGX Stain-Free Gels (Bio-Rad) under reducing conditions and transferred onto PVDF membrane filters using the iBLOT2 system (Life Technologies). […]

The subject of another series is HUVECs. The series can be described thus: Annexin V apoptosis assay on HUVECs. To be noted: after 24 hours of quinagolide treatment, 10^-5 and 10^-7 M. The format is cell-based, human. As to the method: as §1
Series [3] relates to D2 mRNA expression in ectopic EMSCs. The series can be described thus: Real Time PCR of D2 mRNA expression after quinagolide treatment. To be noted: ectopic lines, 48 h of 100 nM quinagolide, vs untreated. Format: cell-based, human. From the text: FIG. 2: Effect of quinagolide on D2 expression in eutopic and ectopic EMSCs. A: Western blot analysis showing the presence of D2 in […] different passages, and in sorted SUSD2^+ E-MSCs. B: Real Time PCR analysis showing the relative quantification (RQ) of D2 mRNA expression by eutopic and ectopic EMSCs. Data are represented as mean±SD of three different eutopic or ectopic (ovarian and peritoneal) lines and normalized to GAPDH and to eutopic […]: Real Time PCR analysis showing D2 mRNA expression after 48 h of 100 nM quinagolide treatment (Q100) by eutopic and ectopic EMSCs. Data are represented as mean±SD of three different eutopic or ectopic (ovarian and peritoneal) lines and normalized to GAPDH and to untreated […] was performed: *=P<0.05 vs CTL. Trizol Reagent (Ambion) was used to isolate total RNA of different cell preparations, according to the manufacturer's protocol. RNA was then quantified spectrophotometrically using Nanodrop ND-1000. Quantitative real-time PCR was performed for gene expression analysis. Briefly, using the HighCapacity cDNA Reverse Transcription Kit (Applied Biosystems), first-strand cDNA was produced from 200 ng of total RNA. […] Fold change expression respect to control was calculated for all samples.

The test system of series [4] is experimentally induced endometriosis. To be noted: Akyol et al., 2016; cited from earlier work.
The subject of series [5] is ectopic EMSCs. As to the kind of experiment: BrdU cell proliferation assay on E-MSCs. The format is cell-based, human. To be noted: different concentrations, after 24 hours. As to the method:
FIG. 3: Quinagolide effect on EMSCs apoptosis and proliferation. A: Quinagolide concentration-response curve on ectopic EMSCs in both apoptosis (N=1) and proliferation (N=2) assays. B: Effect of two selected quinagolide doses (10^−5 and 10^−7M) on HUVECs (N=1) and ectopic E-MSCs (N=3) apoptosis and proliferation assays (N=2). Data are represented as mean±SD of the indicated number of experiments and normalized to untreated cells (Control). Cells were plated in growth medium at a concentration of 2,500 HUVECs/well and 3,000 E-MSCs/well in a 96-multiwell plate. The day after quinagolide was added to the growth medium at different concentrations after 24 hours. Deoxyribonucleic acid synthesis was detected as incorporation of 5-bromo-2-deoxyuridine (BrdU) into the cellular DNA after 48 hours from cell plaiting, using an enzyme-linked assay kit (Chemicon). Untreated cells were used as control. Data are expressed as the mean±standard deviation (SD) of the media of absorbance of at least three different experiments and normalized to control.

For the compound `CCCN1C[C@@H](NS(=O)(=O)N(CC)CC)C[C@@H]2Cc3c(O)cccc3C[C@H]21` [quinagolide, N,N-diethyl-N′-[(3S,4aS,10aR)-6-hydroxy-1-propyl-1,2,3,4,4a,5,10,10a-octahydrobenzo[g]quinolin-3-yl]sulfamide], the safety and tolerability result in series [1] is “safe and well-tolerated”. Also, the “levels of VEGF in the coculture model” value with VEGF is “did not reduce”. Further, the “apoptosis of E-MSCs (Annexin V+)” value in the series with ectopic EMSCs [2] is on record as “did not increase apoptosis”. Further, the “total AKT levels” value in the series on AKT (ectopic EMSCs, 48 h (FIG. 6A)) was “reduced”. In addition, in the series on AKT (ectopic cell lines, 24 hours (text; legend 48 h)), the AKT phosphorylation entry was “significant decrease”. The “apoptosis of HUVEC cells” value in the series on HUVECs is “did not show alteration”. Besides, the “D2 mRNA expression” value in series [3] is given as “reduced”. Moreover, the “outcome in experimentally induced endometriosis rat model” value in series [4] is “successfully tested”. The “proliferation of E-MSCs (BrdU)” value in the series on ectopic EMSCs [5] is “did not affect proliferation”.
